Reference: PubChem BioAssay (NCI)
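Dose response: 5 concentrations. Exposure: 48 h. Format: 96-well plates. Endpoint: linear interpolation; highest concentration if not reached. Abbreviation: GI50, concentration required for 50% inhibition of growth. TGI is the concentration that stops growth completely.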

Tests used:
Experiment in all cases: NCI-60 cell line screen, 48 h
786-0 renal = system: 786-0 renal
A498 renal = system: A498 renal
A549 NSCLC = system: A549 NSCLC
ACHN renal = system: ACHN renal
BT-549 breast = system: BT-549 breast
CAKI-1 renal = system: CAKI-1 renal
CCRF-CEM leukemia = system: CCRF-CEM leukemia
COLO 205 colon = system: COLO 205 colon
DU-145 prostate = system: DU-145 prostate
EKVX NSCLC = system: EKVX NSCLC
HCC-2998 colon = system: HCC-2998 colon
HCT-116 colon = system: HCT-116 colon
HCT-15 colon = system: HCT-15 colon
HL-60(TB) leukemia = system: HL-60(TB) leukemia
HOP-62 NSCLC = system: HOP-62 NSCLC
HOP-92 NSCLC = system: HOP-92 NSCLC
HS 578T breast = system: HS 578T breast
HT29 colon = system: HT29 colon
IGROV1 ovarian = system: IGROV1 ovarian
K-562 leukemia = system: K-562 leukemia
KM12 colon = system: KM12 colon
LOX IMVI melanoma = system: LOX IMVI melanoma
MALME-3M melanoma = system: MALME-3M melanoma
MCF7 breast = system: MCF7 breast
MOLT-4 leukemia = system: MOLT-4 leukemia
NCI-H226 lung = system: NCI-H226 lung
NCI-H460 lung = system: NCI-H460 lung
NCI-H522 lung = system: NCI-H522 lung
NCI/ADR-RES ovarian = system: NCI/ADR-RES ovarian
OVCAR-3 ovarian = system: OVCAR-3 ovarian
OVCAR-4 ovarian = system: OVCAR-4 ovarian
OVCAR-5 ovarian = system: OVCAR-5 ovarian
OVCAR-8 ovarian = system: OVCAR-8 ovarian
PC-3 prostate = system: PC-3 prostate
RPMI-8226 leukemia = system: RPMI-8226 leukemia
RXF 393 renal = system: RXF 393 renal
SF-268 CNS = system: SF-268 CNS
SF-295 CNS = system: SF-295 CNS
SF-539 CNS = system: SF-539 CNS
SK-MEL-2 melanoma = system: SK-MEL-2 melanoma
SK-MEL-28 melanoma = system: SK-MEL-28 melanoma
SK-MEL-5 melanoma = system: SK-MEL-5 melanoma
SK-OV-3 ovarian = system: SK-OV-3 ovarian
SN12C renal = system: SN12C renal
SNB-19 CNS = system: SNB-19 CNS
SNB-75 CNS = system: SNB-75 CNS
SR leukemia = system: SR leukemia
SW-620 colon = system: SW-620 colon
T-47D breast = system: T-47D breast
TK-10 renal = system: TK-10 renal
U251 CNS = system: U251 CNS
UACC-257 melanoma = system: UACC-257 melanoma
UACC-62 melanoma = system: UACC-62 melanoma
UO-31 renal = system: UO-31 renal

COc1cc(C2=NNC(c3ccc(N(C)C)cc3)C2)cc(OC)c1OC (stereo not drawn)
GI50 (786-0 renal): 1.93 µM | TGI (786-0 renal): > 100 µM | GI50 (A498 renal): 2.87 µM | TGI (A498 renal): 8.84 µM | GI50 (A549 NSCLC): 3.94 µM | TGI (A549 NSCLC): > 100 µM | GI50 (ACHN renal): 11.3 µM | TGI (ACHN renal): > 100 µM | GI50 (BT-549 breast): 0.811 µM | TGI (BT-549 breast): 10.3 µM | GI50 (CAKI-1 renal): 2.68 µM | TGI (CAKI-1 renal): > 100 µM | GI50 (CCRF-CEM leukemia): 1.62 µM | TGI (CCRF-CEM leukemia): 6.22 µM | GI50 (COLO 205 colon): 2.39 µM | TGI (COLO 205 colon): 12.5 µM | GI50 (DU-145 prostate): 1.88 µM | TGI (DU-145 prostate): 5.41 µM | GI50 (EKVX NSCLC): 2.02 µM | TGI (EKVX NSCLC): 6.02 µM | GI50 (HCC-2998 colon): 1.4 µM | TGI (HCC-2998 colon): 4.6 µM | GI50 (HCT-116 colon): 2.03 µM | TGI (HCT-116 colon): 19.7 µM | GI50 (HCT-15 colon): 2.48 µM | TGI (HCT-15 colon): > 100 µM | GI50 (HL-60(TB) leukemia): 1.62 µM | TGI (HL-60(TB) leukemia): 4.96 µM | GI50 (HOP-62 NSCLC): 1.13 µM | TGI (HOP-62 NSCLC): > 100 µM | GI50 (HOP-92 NSCLC): 3.77 µM | TGI (HOP-92 NSCLC): > 100 µM | GI50 (HS 578T breast): 2.24 µM | TGI (HS 578T breast): 5.96 µM | GI50 (HT29 colon): 0.667 µM | TGI (HT29 colon): > 100 µM | GI50 (IGROV1 ovarian): 0.546 µM | TGI (IGROV1 ovarian): 3.06 µM | GI50 (K-562 leukemia): 0.406 µM | TGI (K-562 leukemia): 74.5 µM | GI50 (KM12 colon): 0.525 µM | TGI (KM12 colon): 12.4 µM | GI50 (LOX IMVI melanoma): 7.18 µM | TGI (LOX IMVI melanoma): > 100 µM | GI50 (MALME-3M melanoma): 7.85 µM | TGI (MALME-3M melanoma): > 100 µM | GI50 (MCF7 breast): 0.433 µM | TGI (MCF7 breast): > 100 µM | GI50 (MOLT-4 leukemia): 2.81 µM | TGI (MOLT-4 leukemia): 11.4 µM | GI50 (NCI-H226 lung): 54.7 µM | TGI (NCI-H226 lung): > 100 µM | GI50 (NCI-H460 lung): 1.14 µM | TGI (NCI-H460 lung): 6.83 µM | GI50 (NCI-H522 lung): 2 µM | TGI (NCI-H522 lung): 5.74 µM | GI50 (NCI/ADR-RES ovarian): 2.2 µM | TGI (NCI/ADR-RES ovarian): > 100 µM | GI50 (OVCAR-3 ovarian): 6.07 µM | TGI (OVCAR-3 ovarian): > 100 µM | GI50 (OVCAR-4 ovarian): 16.9 µM | TGI (OVCAR-4 ovarian): > 100 µM | GI50 (OVCAR-5 ovarian): 4.73 µM | TGI (OVCAR-5 ovarian): > 100 µM | GI50 (OVCAR-8 ovarian): 4.13 µM | TGI (OVCAR-8 ovarian): > 100 µM | GI50 (PC-3 prostate): 0.781 µM | TGI (PC-3 prostate): > 100 µM | GI50 (RPMI-8226 leukemia): 1.71 µM | TGI (RPMI-8226 leukemia): 11.7 µM | GI50 (RXF 393 renal): 1.2 µM | TGI (RXF 393 renal): 4.83 µM | GI50 (SF-268 CNS): 2.09 µM | TGI (SF-268 CNS): > 100 µM | GI50 (SF-295 CNS): 0.249 µM | TGI (SF-295 CNS): 0.799 µM | GI50 (SF-539 CNS): 0.56 µM | TGI (SF-539 CNS): 2.89 µM | GI50 (SK-MEL-2 melanoma): 3.18 µM | TGI (SK-MEL-2 melanoma): 26.2 µM | GI50 (SK-MEL-28 melanoma): 15.6 µM | TGI (SK-MEL-28 melanoma): > 100 µM | GI50 (SK-MEL-5 melanoma): 2.09 µM | TGI (SK-MEL-5 melanoma): 7.15 µM | GI50 (SK-OV-3 ovarian): 4.22 µM | TGI (SK-OV-3 ovarian): > 100 µM | GI50 (SN12C renal): 4.63 µM | TGI (SN12C renal): > 100 µM | GI50 (SNB-19 CNS): 1.82 µM | TGI (SNB-19 CNS): > 100 µM | GI50 (SNB-75 CNS): 1.02 µM | TGI (SNB-75 CNS): > 100 µM | GI50 (SR leukemia): 0.25 µM | TGI (SR leukemia): 8.06 µM | GI50 (SW-620 colon): 0.45 µM | TGI (SW-620 colon): > 100 µM | GI50 (T-47D breast): 19.8 µM | TGI (T-47D breast): > 100 µM | GI50 (TK-10 renal): 10.1 µM | TGI (TK-10 renal): > 100 µM | GI50 (U251 CNS): 0.672 µM | TGI (U251 CNS): > 100 µM | GI50 (UACC-257 melanoma): 8.61 µM | TGI (UACC-257 melanoma): 47.4 µM | GI50 (UACC-62 melanoma): 4.37 µM | TGI (UACC-62 melanoma): > 100 µM | GI50 (UO-31 renal): 4.75 µM | TGI (UO-31 renal): 50.6 µM
